Measured values: ChEMBL document CHEMBL5038624, “Construction and activity evaluation of novel dual-target (SE/CYP51) anti-fungal agents containing amide naphthyl structure” (Eur J Med Chem, 2022)
Converted amounts (≈) assume the structure as drawn.

Test system: Candida albicans
Experiment: Inhibition of SE/CYP51 in Candida albicans ATCC SC5314 assessed as eburicol level incubated for 48 hrs by LC/MS analysis
Set-up: scale not given: the % may be the effect or the level left

| Compound | Activity [%] |
| --- | --- |
| CN(C/C=C/c1ccccc1)Cc1cccc2ccccc12 [NAFTIFINE] | 5.2 |
| OC(Cn1cncn1)(Cn1cncn1)c1ccc(F)cc1F [FLUCONAZOLE] | 41.5 |

Test system: not listed separately
Experiment: Inhibition of SE in Candida albicans ATCC SC5314 measured after 30 mins by HPLC analysis

| Compound | IC50 [nM] |
| --- | --- |
| CN(C/C=C/c1ccccc1)Cc1cccc2ccccc12 [NAFTIFINE] | 469 |

Test system: Candida albicans
Experiment: Antifungal activity against Candida albicans strain 904 assessed as reduction in fungal growth incubated for 72 hrs by CLSI protocol based broth microdilution method
Type: functional

| Compound | MIC50 [µg/mL] |
| --- | --- |
| O=C(/C=C/c1cccc2ccccc12)NC(Cn1ccnc1)c1ccccc1 (stereo not given) | > 8 |
| CN(C/C=C/c1ccccc1)Cc1cccc2ccccc12 [NAFTIFINE] | 4 (≈ 13.9 µM) |
| OC(Cn1cncn1)(Cn1cncn1)c1ccc(F)cc1F [FLUCONAZOLE] | > 8 |

Test system: Candida albicans
Experiment: Induction of apoptosis against Candida albicans ATCC SC5314 assessed as viable cells measured after 48 hrs by Annexin V-FITC/propidium iodide staining based flow cytometry (reference value: 80.78 %)
Type: functional

| Compound | Activity [%] |
| --- | --- |
| CN(C/C=C/c1ccccc1)Cc1cccc2ccccc12 [NAFTIFINE] | 38.54 |
| OC(Cn1cncn1)(Cn1cncn1)c1ccc(F)cc1F [FLUCONAZOLE] | 74.25 |

Test system: Pichia kudriavzevii
Experiment: Antifungal activity against Candida krusei ATCC 6258 assessed as reduction in fungal growth incubated for 72 hrs by CLSI protocol based broth microdilution method
Type: functional

| Compound | MIC50 [µg/mL] |
| --- | --- |
| O=C(/C=C/c1cccc2ccccc12)NC(Cn1cncn1)C(=O)c1ccccc1 (stereo not given) | 0.5 (≈ 1.26 µM) |
| O=C(/C=C/c1ccc2ccccc2c1)NC(C(=O)Nc1cccnc1)c1ccccc1 (stereo not given) | 1 (≈ 2.45 µM) |
| O=C(NC(Cn1ccnc1)C(=O)c1ccccc1)c1cccc2ccccc12 (stereo not given) | 0.25 (≈ 0.677 µM) |
| O=C(/C=C/c1cccc2ccccc12)NC(C(=O)Nc1cccnc1)c1ccccc1 (stereo not given) | 0.5 (≈ 1.23 µM) |
| O=C(/C=C/c1cccc2ccccc12)NC(Cn1ccnc1)c1ccccc1 (stereo not given) | 0.125 (≈ 0.34 µM) |
| CN(C/C=C/c1ccccc1)Cc1cccc2ccccc12 [NAFTIFINE] | 0.25 (≈ 0.87 µM) |
| OC(Cn1cncn1)(Cn1cncn1)c1ccc(F)cc1F [FLUCONAZOLE] | 0.5 (≈ 1.63 µM) |

Test system: Candida albicans
Experiment: Induction of apoptosis against Candida albicans ATCC SC5314 assessed as mild apoptotic cells measured after 48 hrs by Annexin V-FITC/propidium iodide staining based flow cytometry (Rvb =0.29 %)
Type: functional

| Compound | Activity [%] |
| --- | --- |
| CN(C/C=C/c1ccccc1)Cc1cccc2ccccc12 [NAFTIFINE] | 0.05 |
| OC(Cn1cncn1)(Cn1cncn1)c1ccc(F)cc1F [FLUCONAZOLE] | 0.22 |

Test system: Aspergillus fumigatus
Experiment: Antifungal activity against Aspergillus fumigatus KM8001 assessed as reduction in fungal growth incubated for 72 hrs by CLSI protocol based broth microdilution method
Type: functional

| Compound | MIC50 [µg/mL] |
| --- | --- |
| O=C(/C=C/c1cccc2ccccc12)NC(Cn1cncn1)C(=O)c1ccccc1 (stereo not given) | 4 (≈ 10.1 µM) |
| O=C(/C=C/c1ccc2ccccc2c1)NC(C(=O)Nc1cccnc1)c1ccccc1 (stereo not given) | 4 (≈ 9.82 µM) |
| O=C(NC(Cn1ccnc1)C(=O)c1ccccc1)c1cccc2ccccc12 (stereo not given) | 4 (≈ 10.8 µM) |
| O=C(/C=C/c1cccc2ccccc12)NC(C(=O)Nc1cccnc1)c1ccccc1 (stereo not given) | 4 (≈ 9.82 µM) |
| O=C(/C=C/c1cccc2ccccc12)NC(Cn1ccnc1)c1ccccc1 (stereo not given) | 2 (≈ 5.44 µM) |
| CN(C/C=C/c1ccccc1)Cc1cccc2ccccc12 [NAFTIFINE] | 4 (≈ 13.9 µM) |
| OC(Cn1cncn1)(Cn1cncn1)c1ccc(F)cc1F [FLUCONAZOLE] | > 8 |

Test system: Candida albicans
Experiment: Induction of apoptosis against Candida albicans ATCC SC5314 assessed as necrotic cells measured after 48 hrs by Annexin V-FITC/propidium iodide staining based flow cytometry (reference value: 18.22 %)
Type: functional

| Compound | Activity [%] |
| --- | --- |
| CN(C/C=C/c1ccccc1)Cc1cccc2ccccc12 [NAFTIFINE] | 60.92 |
| OC(Cn1cncn1)(Cn1cncn1)c1ccc(F)cc1F [FLUCONAZOLE] | 24.61 |

Test system: Candida albicans
Experiment: Antifungal activity against Candida albicans SC5314 assessed as reduction in fungal growth incubated for 72 hrs by CLSI protocol based broth microdilution method
Type: functional

| Compound | MIC50 [µg/mL] |
| --- | --- |
| O=C(/C=C/c1cccc2ccccc12)NC(Cn1cncn1)C(=O)c1ccccc1 (stereo not given) | 0.25 (≈ 0.631 µM) |
| O=C(/C=C/c1ccc2ccccc2c1)NC(C(=O)Nc1cccnc1)c1ccccc1 (stereo not given) | 0.5 (≈ 1.23 µM) |
| O=C(NC(Cn1ccnc1)C(=O)c1ccccc1)c1cccc2ccccc12 (stereo not given) | 0.5 (≈ 1.35 µM) |
| O=C(/C=C/c1cccc2ccccc12)NC(C(=O)Nc1cccnc1)c1ccccc1 (stereo not given) | 0.5 (≈ 1.23 µM) |
| O=C(/C=C/c1cccc2ccccc12)NC(Cn1ccnc1)c1ccccc1 (stereo not given) | 0.125 (≈ 0.34 µM) |
| CN(C/C=C/c1ccccc1)Cc1cccc2ccccc12 [NAFTIFINE] | 0.5 (≈ 1.74 µM) |
| OC(Cn1cncn1)(Cn1cncn1)c1ccc(F)cc1F [FLUCONAZOLE] | 0.25 (≈ 0.816 µM) |

Test system: Candida albicans
Experiment: Antifungal activity against Candida albicans strain 901 assessed as reduction in fungal growth incubated for 72 hrs by CLSI protocol based broth microdilution method
Type: functional

| Compound | MIC50 [µg/mL] |
| --- | --- |
| O=C(/C=C/c1cccc2ccccc12)NC(Cn1ccnc1)c1ccccc1 (stereo not given) | 4 (≈ 10.9 µM) |
| CN(C/C=C/c1ccccc1)Cc1cccc2ccccc12 [NAFTIFINE] | > 8 |
| OC(Cn1cncn1)(Cn1cncn1)c1ccc(F)cc1F [FLUCONAZOLE] | > 8 |

Test system: Candida albicans
Experiment: Inhibition of SE/CYP51 in Candida albicans ATCC SC5314 assessed as ergosterol level incubated for 48 hrs by LC/MS analysis
Set-up: scale not given: the % may be the effect or the level left

| Compound | Activity [%] |
| --- | --- |
| CN(C/C=C/c1ccccc1)Cc1cccc2ccccc12 [NAFTIFINE] | 24.3 |
| OC(Cn1cncn1)(Cn1cncn1)c1ccc(F)cc1F [FLUCONAZOLE] | 26.5 |

Target: Lanosterol 14-alpha demethylase (Candida albicans (strain SC5314 / ATCC MYA-2876) (Yeast), UniProt P10613)
Experiment: Inhibition of CYP51 in Candida albicans ATCC SC5314 measured after 30 mins by HPLC analysis

Chain of Lanosterol 14-alpha demethylase (P10613 whole entry): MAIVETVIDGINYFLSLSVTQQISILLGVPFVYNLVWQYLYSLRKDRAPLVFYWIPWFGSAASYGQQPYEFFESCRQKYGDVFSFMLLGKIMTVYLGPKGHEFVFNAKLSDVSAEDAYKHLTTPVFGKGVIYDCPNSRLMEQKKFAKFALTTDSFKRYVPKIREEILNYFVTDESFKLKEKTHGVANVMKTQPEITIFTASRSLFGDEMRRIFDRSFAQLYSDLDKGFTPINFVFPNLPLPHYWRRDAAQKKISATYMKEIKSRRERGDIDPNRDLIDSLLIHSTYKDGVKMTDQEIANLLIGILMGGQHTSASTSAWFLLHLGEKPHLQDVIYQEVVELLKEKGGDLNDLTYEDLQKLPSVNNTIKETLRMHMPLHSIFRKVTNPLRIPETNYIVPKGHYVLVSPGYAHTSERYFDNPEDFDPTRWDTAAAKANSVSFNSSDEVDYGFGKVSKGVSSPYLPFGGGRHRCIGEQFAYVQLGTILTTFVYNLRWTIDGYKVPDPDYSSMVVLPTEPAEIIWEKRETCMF

| Compound | IC50 [nM] |
| --- | --- |
| OC(Cn1cncn1)(Cn1cncn1)c1ccc(F)cc1F [FLUCONAZOLE] | 134 |

Test system: Candida albicans
Experiment: Inhibition of SE/CYP51 in Candida albicans ATCC SC5314 assessed as squalene level incubated for 48 hrs by LC/MS analysis
Set-up: scale not given: the % may be the effect or the level left

| Compound | Activity [%] |
| --- | --- |
| CN(C/C=C/c1ccccc1)Cc1cccc2ccccc12 [NAFTIFINE] | 49.5 |
| OC(Cn1cncn1)(Cn1cncn1)c1ccc(F)cc1F [FLUCONAZOLE] | 1.8 |

Test system: Candida albicans
Experiment: Inhibition of SE/CYP51 in Candida albicans ATCC SC5314 assessed as lanosterol level incubated for 48 hrs by LC/MS analysis
Set-up: scale not given: the % may be the effect or the level left

| Compound | Activity [%] |
| --- | --- |
| CN(C/C=C/c1ccccc1)Cc1cccc2ccccc12 [NAFTIFINE] | 15.2 |
| OC(Cn1cncn1)(Cn1cncn1)c1ccc(F)cc1F [FLUCONAZOLE] | 23.6 |

Test system: Candida albicans
Experiment: Antifungal activity against Candida albicans strain 17 assessed as reduction in fungal growth incubated for 72 hrs by CLSI protocol based broth microdilution method
Type: functional

| Compound | MIC50 [µg/mL] |
| --- | --- |
| O=C(/C=C/c1cccc2ccccc12)NC(Cn1ccnc1)c1ccccc1 (stereo not given) | 4 (≈ 10.9 µM) |
| CN(C/C=C/c1ccccc1)Cc1cccc2ccccc12 [NAFTIFINE] | 4 (≈ 13.9 µM) |
| OC(Cn1cncn1)(Cn1cncn1)c1ccc(F)cc1F [FLUCONAZOLE] | > 8 |

Test system: Nakaseomyces glabratus
Experiment: Antifungal activity against Candida glabrata ATCC 0001 assessed as reduction in fungal growth incubated for 72 hrs by CLSI protocol based broth microdilution method
Type: functional

| Compound | MIC50 [µg/mL] |
| --- | --- |
| O=C(/C=C/c1cccc2ccccc12)NC(Cn1cncn1)C(=O)c1ccccc1 (stereo not given) | 0.25 (≈ 0.631 µM) |
| O=C(/C=C/c1ccc2ccccc2c1)NC(C(=O)Nc1cccnc1)c1ccccc1 (stereo not given) | 0.25 (≈ 0.614 µM) |
| O=C(NC(Cn1ccnc1)C(=O)c1ccccc1)c1cccc2ccccc12 (stereo not given) | 1 (≈ 2.71 µM) |
| O=C(/C=C/c1cccc2ccccc12)NC(C(=O)Nc1cccnc1)c1ccccc1 (stereo not given) | 1 (≈ 2.45 µM) |
| O=C(/C=C/c1cccc2ccccc12)NC(Cn1ccnc1)c1ccccc1 (stereo not given) | 0.5 (≈ 1.36 µM) |
| CN(C/C=C/c1ccccc1)Cc1cccc2ccccc12 [NAFTIFINE] | 0.5 (≈ 1.74 µM) |
| OC(Cn1cncn1)(Cn1cncn1)c1ccc(F)cc1F [FLUCONAZOLE] | 0.5 (≈ 1.63 µM) |

Test system: Candida albicans
Experiment: Antifungal activity against Candida albicans strain CaR assessed as reduction in fungal growth incubated for 72 hrs by CLSI protocol based broth microdilution method
Type: functional

| Compound | MIC50 [µg/mL] |
| --- | --- |
| O=C(/C=C/c1cccc2ccccc12)NC(Cn1ccnc1)c1ccccc1 (stereo not given) | 4 (≈ 10.9 µM) |
| CN(C/C=C/c1ccccc1)Cc1cccc2ccccc12 [NAFTIFINE] | > 8 |
| OC(Cn1cncn1)(Cn1cncn1)c1ccc(F)cc1F [FLUCONAZOLE] | > 8 |

Test system: Candida albicans
Experiment: Inhibition of SE/CYP51 in Candida albicans ATCC SC5314 assessed as unknown sterol level incubated for 48 hrs by LC/MS analysis
Set-up: scale not given: the % may be the effect or the level left

| Compound | Activity [%] |
| --- | --- |
| CN(C/C=C/c1ccccc1)Cc1cccc2ccccc12 [NAFTIFINE] | 5.8 |
| OC(Cn1cncn1)(Cn1cncn1)c1ccc(F)cc1F [FLUCONAZOLE] | 6.6 |

Test system: Candida tropicalis
Experiment: Antifungal activity against Candida tropicalis ATCC 1369 assessed as reduction in fungal growth incubated for 72 hrs by CLSI protocol based broth microdilution method
Type: functional

| Compound | MIC50 [µg/mL] |
| --- | --- |
| O=C(/C=C/c1cccc2ccccc12)NC(Cn1cncn1)C(=O)c1ccccc1 (stereo not given) | 0.125 (≈ 0.315 µM) |
| O=C(/C=C/c1ccc2ccccc2c1)NC(C(=O)Nc1cccnc1)c1ccccc1 (stereo not given) | 0.25 (≈ 0.614 µM) |
| O=C(NC(Cn1ccnc1)C(=O)c1ccccc1)c1cccc2ccccc12 (stereo not given) | 0.5 (≈ 1.35 µM) |
| O=C(/C=C/c1cccc2ccccc12)NC(C(=O)Nc1cccnc1)c1ccccc1 (stereo not given) | 0.5 (≈ 1.23 µM) |
| O=C(/C=C/c1cccc2ccccc12)NC(Cn1ccnc1)c1ccccc1 (stereo not given) | 0.25 (≈ 0.68 µM) |
| CN(C/C=C/c1ccccc1)Cc1cccc2ccccc12 [NAFTIFINE] | 0.5 (≈ 1.74 µM) |
| OC(Cn1cncn1)(Cn1cncn1)c1ccc(F)cc1F [FLUCONAZOLE] | 0.5 (≈ 1.63 µM) |

Test system: Candida albicans
Experiment: Induction of apoptosis against Candida albicans ATCC SC5314 assessed as late apoptotic cells measured after 48 hrs by Annexin V-FITC/propidium iodide staining based flow cytometry (reference value: 0.71 %)
Type: functional

| Compound | Activity [%] |
| --- | --- |
| CN(C/C=C/c1ccccc1)Cc1cccc2ccccc12 [NAFTIFINE] | 0.49 |
| OC(Cn1cncn1)(Cn1cncn1)c1ccc(F)cc1F [FLUCONAZOLE] | 0.92 |

Test system: Candida albicans
Experiment: Antifungal activity against Candida albicans strain 632 assessed as reduction in fungal growth incubated for 72 hrs by CLSI protocol based broth microdilution method
Type: functional

| Compound | MIC50 [µg/mL] |
| --- | --- |
| O=C(/C=C/c1cccc2ccccc12)NC(Cn1ccnc1)c1ccccc1 (stereo not given) | > 8 |
| CN(C/C=C/c1ccccc1)Cc1cccc2ccccc12 [NAFTIFINE] | 4 (≈ 13.9 µM) |
| OC(Cn1cncn1)(Cn1cncn1)c1ccc(F)cc1F [FLUCONAZOLE] | > 8 |
